Measured values taken from ChEMBL document CHEMBL5724914, “Linking interpersonal differences in gut microbiota composition and drug biotransformation activity” (2024).

Columns and labels:
[1] = The drug is tested on Z-020 corresponding to rabbit gut metagenome with ENA study accession number: PRJEB37062 and ENA sample accession number: ERS12561819 for biotransformation under anaerobic condition. The drug concentrations were measured over 9 timepoints collected between 0 and 24 hours of incubation by liquid-chromatography-coupled mass spectrometry (LC–MS); settings: 2 µM
[2] = human gut metagenome, 24 h, 2 µM
[3] = The drug is tested on Z-023 corresponding to metagenome with ENA study accession number: PRJEB37062 and ENA sample accession number: ERS12561822 for biotransformation under anaerobic condition. The drug concentrations were measured over 9 timepoints collected between 0 and 24 hours of incubation by liquid-chromatography-coupled mass spectrometry (LC–MS); settings: 2 µM
[4] = The drug is tested on WLS-069 corresponding to human gut metagenome with ENA study accession number: PRJEB37062 and ENA sample accession number: ERS12561748 for biotransformation under anaerobic condition. The drug concentrations were measured over 9 timepoints collected between 0 and 24 hours of incubation by liquid-chromatography-coupled mass spectrometry (LC–MS); settings: 2 µM
[5] = human gut metagenome, 24 h, 2 µM; remark: listed apart in the source
[6] = The drug is tested on Z-002 corresponding to rabbit gut metagenome with ENA study accession number: PRJEB37062 and ENA sample accession number: ERS12561802 for biotransformation under anaerobic condition. The drug concentrations were measured over 9 timepoints collected between 0 and 24 hours of incubation by liquid-chromatography-coupled mass spectrometry (LC–MS); settings: 2 µM
[7] = The drug is tested on WLS-052 corresponding to human gut metagenome with ENA study accession number: PRJEB37062 and ENA sample accession number: ERS12561747 for biotransformation under anaerobic condition. The drug concentrations were measured over 9 timepoints collected between 0 and 24 hours of incubation by liquid-chromatography-coupled mass spectrometry (LC–MS); settings: 2 µM
[8] = human gut metagenome, 24 h, 2 µM; remark: listed apart in the source
[9] = The drug is tested on Z-003 corresponding to pig gut metagenome with ENA study accession number: PRJEB37062 and ENA sample accession number: ERS12561803 for biotransformation under anaerobic condition. The drug concentrations were measured over 9 timepoints collected between 0 and 24 hours of incubation by liquid-chromatography-coupled mass spectrometry (LC–MS); settings: 2 µM
[10] = The drug is tested on WLS-007 corresponding to human gut metagenome with ENA study accession number: PRJEB37062 and ENA sample accession number: ERS12561742 for biotransformation under anaerobic condition. The drug concentrations were measured over 9 timepoints collected between 0 and 24 hours of incubation by liquid-chromatography-coupled mass spectrometry (LC–MS); settings: 2 µM
[11] = The drug is tested on Z-014 corresponding to rat gut metagenome with ENA study accession number: PRJEB37062 and ENA sample accession number: ERS12561814 for biotransformation under anaerobic condition. The drug concentrations were measured over 9 timepoints collected between 0 and 24 hours of incubation by liquid-chromatography-coupled mass spectrometry (LC–MS); settings: 2 µM
[12] = The drug is tested on Z-019 corresponding to rat gut metagenome with ENA study accession number: PRJEB37062 and ENA sample accession number: ERS12561818 for biotransformation under anaerobic condition. The drug concentrations were measured over 9 timepoints collected between 0 and 24 hours of incubation by liquid-chromatography-coupled mass spectrometry (LC–MS); settings: 2 µM
[13] = The drug is tested on WLS-086 corresponding to human gut metagenome with ENA study accession number: PRJEB37062 and ENA sample accession number: ERS12561752 for biotransformation under anaerobic condition. The drug concentrations were measured over 9 timepoints collected between 0 and 24 hours of incubation by liquid-chromatography-coupled mass spectrometry (LC–MS); settings: 2 µM
[14] = human gut metagenome, 24 h, 2 µM; remark: listed apart in the source
[15] = human gut metagenome, 24 h, 2 µM; remark: listed apart in the source
[16] = The drug is tested on Z-010 corresponding to metagenome with ENA study accession number: PRJEB37062 and ENA sample accession number: ERS12561810 for biotransformation under anaerobic condition. The drug concentrations were measured over 9 timepoints collected between 0 and 24 hours of incubation by liquid-chromatography-coupled mass spectrometry (LC–MS); settings: 2 µM
[17] = human gut metagenome, 24 h, 2 µM; remark: listed apart in the source
[18] = The drug is tested on Z-027 corresponding to metagenome with ENA study accession number: PRJEB37062 and ENA sample accession number: ERS12561826 for biotransformation under anaerobic condition. The drug concentrations were measured over 9 timepoints collected between 0 and 24 hours of incubation by liquid-chromatography-coupled mass spectrometry (LC–MS); settings: 2 µM
[19] = human gut metagenome, 24 h, 2 µM; remark: listed apart in the source
[20] = The drug is tested on Z-008 corresponding to metagenome with ENA study accession number: PRJEB37062 and ENA sample accession number: ERS12561808 for biotransformation under anaerobic condition. The drug concentrations were measured over 9 timepoints collected between 0 and 24 hours of incubation by liquid-chromatography-coupled mass spectrometry (LC–MS); settings: 2 µM
Also: call rule not given here.

Structure (SMILES) | Bacterial Biotransformation [1] | Bacterial Biotransformation [2] | Bacterial Biotransformation [3] | Bacterial Biotransformation [4] | Bacterial Biotransformation [5] | Bacterial Biotransformation [6] | Bacterial Biotransformation [7] | Bacterial Biotransformation [8] | Bacterial Biotransformation [9] | Bacterial Biotransformation [10] | Bacterial Biotransformation [11] | Bacterial Biotransformation [12] | Bacterial Biotransformation [13] | Bacterial Biotransformation [14] | Bacterial Biotransformation [15] | Bacterial Biotransformation [16] | Bacterial Biotransformation [17] | Bacterial Biotransformation [18] | Bacterial Biotransformation [19] | Bacterial Biotransformation [20]
c1ccc2[nH]c(-c3cscn3)nc2c1 [THIABENDAZOLE] | Compound NOT metabolized | Compound NOT metabolized | Compound NOT metabolized | Compound NOT metabolized | Compound NOT metabolized | Compound NOT metabolized | Compound NOT metabolized | Compound metabolized | Compound NOT metabolized | Compound NOT metabolized | Compound NOT metabolized | Compound NOT metabolized | Compound metabolized | Compound NOT metabolized | Compound metabolized | Compound NOT metabolized | Compound NOT metabolized | Compound NOT metabolized | Compound NOT metabolized | Compound NOT metabolized
COc1ccc(C(CN(C)C)C2(O)CCCCC2)cc1 (stereo not given) [VENLAFAXINE] | Compound NOT metabolized | Compound NOT metabolized | Compound NOT metabolized | Compound NOT metabolized | Compound NOT metabolized | Compound NOT metabolized | Compound NOT metabolized | Compound NOT metabolized | Compound NOT metabolized | Compound NOT metabolized | Compound NOT metabolized | Compound NOT metabolized | Compound NOT metabolized | Compound NOT metabolized | Compound metabolized | Compound NOT metabolized | Compound NOT metabolized | Compound NOT metabolized | Compound NOT metabolized | Compound NOT metabolized
OC(c1cc(C(F)(F)F)nc2c(C(F)(F)F)cccc12)C1CCCCN1 (stereo not given) [MEFLOQUINE] | Compound metabolized | Compound metabolized | Compound metabolized | Compound metabolized | Compound metabolized | Compound metabolized | Compound metabolized | Compound metabolized | Compound metabolized | Compound NOT metabolized | Compound NOT metabolized | Compound NOT metabolized | Compound metabolized | Compound metabolized | Compound metabolized | Compound metabolized | Compound metabolized | Compound NOT metabolized | Compound NOT metabolized | Compound NOT metabolized
CC(=O)Nc1ccc(OC(C)=O)cc1 [DIACETAMATE] | Compound metabolized | Compound metabolized | Compound metabolized | Compound metabolized | Compound metabolized | Compound metabolized | Compound metabolized | Compound metabolized | Compound metabolized | Compound metabolized | Compound metabolized | Compound metabolized | Compound metabolized | Compound metabolized | Compound metabolized | Compound metabolized | Compound metabolized | Compound metabolized | Compound metabolized | Compound metabolized
CCN(CC)CCOC(=O)C1(C2CCCCC2)CCCCC1 [DICYCLOMINE] | Compound NOT metabolized | Compound NOT metabolized | Compound metabolized | Compound metabolized | Compound metabolized | Compound metabolized | Compound NOT metabolized | Compound metabolized | Compound NOT metabolized | Compound metabolized | Compound NOT metabolized | Compound NOT metabolized | Compound metabolized | Compound metabolized | Compound metabolized | Compound metabolized | Compound metabolized | Compound NOT metabolized | Compound NOT metabolized | Compound NOT metabolized
